Source: patent publication US6552235B2, “Process for the preparation of cyclohexanol” (Asahi Kasei Kabushiki Kaisha, priority 1999, dated 2003)
Read-outs that look alike come from different tables or passages of the source.

Key:
[1] = cited from earlier work
[2] = phenol-containing system, 120° C.; solvent-free system 3818; cited from earlier work
[3] = Solvent conversion rate in batch-wise hydration reaction of cyclohexene (H-ZSM-5 zeolite-A); type: physicochemical; conditions: 120° C.; for Solvent convertion rate: H-ZSM-5-A, 20 g solvent
Protocol: The organic solvent used as a reaction solvent in the method of the present invention has a conversion rate of not more than 3% under the hydration reaction conditions of cyclohexene. The conversion rate of the organic solvent in the present invention is a conversion rate in the reaction of the organic solvent per se or the organic solvent with cyclohexene or cyclohexanol per 1 hour of batch reaction at the reaction temperature at which the hydration reaction of cyclohexene is carried out. In industrial working of the present invention, the solvent used for the reaction is separated from the product cyclohexanol and circulated for reuse.
30 g of the resulting H-ZSM-5 zeolite-A catalyst and 81 g of water were charged in a glass autoclave A and heated to 120° C. with stirring under application of a nitrogen pressure of 0.5 MPa. Separately, 61 g of cyclohexene and 20 g of isophorone were charged in a glass autoclave B and heated to 120° C. under application of a nitrogen pressure of 0.6 MPa. Thereafter, the cyclohexene/isophorone mixed liquid was sent under pressure from the glass autoclave B to the glass autoclave A, and the reaction was started. After the reaction for 1 hour, the stirring was stopped, and the oil phase was sampled and analyzed by gas chromatography. At the sampling, the reaction mixture separated to two phases of oil phase and aqueous phase immediately after stopping of stirring. Yield and selectivity of cyclohexanol were as follows.
The hydration reaction of cyclohexene was carried out in the same manner as in Example 1, except that ethylene glycol monophenyl ether, phenethyl alcohol and 3,3,5-trimethylcyclohexanone were respectively used as the reaction solvents. The results of the reactions are shown in Table 1, and characteristics of the organic solvents used in this Example are shown in Table 2.
The reaction was carried out in the same manner as in Example 1, except that benzyl alcohol was used as the solvent. Yield of cyclohexanol after each reaction time was as follows.

[4] = Liquid-liquid distribution coefficient of cyclohexene at 120° C. and solvent effect index; type: physicochemical; conditions: for Solvent effect index: distribution coefficient in solvent-free system/in solvent-containing system; for Distribution coefficient of cyclohexene: molar fraction in oil phase/aqueous phase, cyclohexene/cyclohexanol/organic solvent/water 56.7/13.3/30/100 by weight
Protocol: The organic solvent used in the present invention has a solvent effect index (defined below) of not less than 1.5. The solvent effect index in the present invention is defined to be a ratio of a distribution coefficient of cyclohexene in the absence of solvent at 120° C. and a distribution coefficient of cyclohexene in a solvent-containing system at 120° C. (distribution coefficient of cyclohexene in the absence of solvent/distribution coefficient of cyclohexene in a solvent-containing system), and it indicates an effect to make predominate the distribution of cyclohexene into an aqueous solution due to the presence of the organic solvent.
Detailedly, the solvent effect index in the present invention is obtained in the following manner. Cyclohexene/cyclohexanol/organic solvent/water are charged at a weight ratio of 56.7/13.3/30/100, and the distribution coefficient of cyclohexene (molar fraction of cyclohexene in oil phase/molar fraction of cyclohexene in aqueous phase) is obtained from the liquid composition of both phases of the oil phase and the aqueous phase in an equilibrium state kept at 120° C. The ratio of the resulting distribution coefficient of cyclohexene and the distribution coefficient of cyclohexene in a solvent-free system (measured at 120° C. by charging cyclohexene/cyclohexanol/water at a weight ratio of 56.7/13.3/100), namely, the ratio of distribution coefficient in solvent-free system/distribution coefficient in solvent-containing system, is the solvent effect index in the present invention.
Here, the distribution coefficient of cyclohexene is measured by the following method. That is, an oil and water at the above weight ratio are charged in a pressure container under a nitrogen pressure, and sufficiently stirred and mixed at a rising temperature of 120° C., followed by reducing the stirring speed and leaving at rest for a time long enough to reach an equilibrium state. Thereafter, each of the oil phase and the aqueous phase is sampled in a solvent such as 1,4-dioxane, and the compositions of both the oil phase and the aqueous phase are obtained from analysis by gas chromatography and a Karl Fischer moisture meter. Thus, the distribution coefficient of cyclohexene is measured.

[5] = Solvent conversion rate in continuous fixed-bed flowing hydration reaction of cyclohexene; type: physicochemical; conditions: fixed-bed flow; for Solvent conversion rate: 30 wt % solvent, 124-134° C., 2 MPa
Protocol: A continuous fixed-bed flowing reaction test of a cyclohexene hydration reaction was conducted under the following conditions using ethylene glycol monophenyl ether (EGMPE) as a reaction solvent. As a reaction apparatus, a stainless steel reaction vessel of 26.5 mm in internal diameter provided with a heating medium jacket was used. In the upper part of the reaction vessel, there were provided feed openings for water and oil, and in the lower part of the reaction vessel, oil and water in the mixed state were led to a reaction mixture storage tank through a pressure regulating valve, and oil and water were separated from each other in the reaction mixture storage tank. ZSM-5 zeolite (silica/alumina molar ratio=50) manufactured by Engelhard Co., Ltd. with addition of 20 wt % of an alumina binder was extrusion molded to a size of 1/16 inch in external diameter and 5 mm in length, and this was used as the catalyst. The height of the catalyst layer was 240 mm. The continuous reaction was carried out by an oil-water falling parallel flow sealing reaction method under the following conditions.
The oil phase discharged into the reaction mixture storage tank was analyzed by gas chromatography to obtain the results of the reaction. At the time of starting of the reaction, only cyclohexene was fed, and after a lapse of 20 hours from the starting of the reaction, the starting material was changed to a mixed liquid of cyclohexene/ethylene glycol monophenyl ether=70/30 (weight ratio), and thereafter the reaction was continued for 150 hours.

Compound	Solvent effect index [4]	Distribution coefficient of cyclohexene [4]	Solvent convertion rate ([3]; 1 hour) [%]	Solubility in water (25° C.) [1] [g/100 ml]	other results
O=C1CCCCC1 [cyclohexanone, reference compound]					solubility in water [1]: 8.7%
Oc1ccccc1 [phenol]					cyclohexene distribution coefficient (concentration in oil phase mol %/aqueous phase mol %) [2]: 680
OCc1ccccc1 [benzyl alcohol, reference compound]					conversion rate of the reaction solvent to dibenzyl ether ([3]; H-ZSM-5 zeolite-A, after 1 hour): 11.4%; conversion rate of the reaction solvent to dibenzyl ether ([3]; H-ZSM-5 zeolite-A, after 2 hours): 16.0%
OCCc1ccccc1 [Phenethyl alcohol]	2.24	1846	0.35	2.00	
OCCOc1ccccc1 [Ethylene glycol monophenyl ether, ethylene glycol monophenyl ether]	2.46	1681	0.70	2.70	Solvent conversion rate ([5]; reaction time 25 Hr): 0.84%; Solvent conversion rate ([5]; reaction time 80 Hr): 0.63%; Solvent conversion rate ([5]; reaction time 150 Hr): 0.42%; conversion rate to ethylene glycol cyclohexylphenyl ether ([5]; under the hydration reaction conditions): less than 1%
CC1=CC(=O)CC(C)(C)C1 [Isophorone]	2.19	1884	0.00	1.2	change of the solvent in the hydration reaction ([3]; H-ZSM-5 zeolite-A, 1 hour): showed no change; Solubility in water (25° C.) ([1]; listed as IPN): 1.20 g/100 ml
CC1CC(=O)CC(C)(C)C1 (centres unmarked) [3,3,5-Trimethylcyclohexanone]	2.14	1929	0.00	0.80	
